Results on 2 compounds are retold here after article PMC7059070, “Synthesis and in-vitro Evaluation of S-allyl Cysteine Ester - Caffeic Acid Amide Hybrids as Potential Anticancer Agents” (Iranian Journal of Pharmaceutical Research : IJPR, 2019).

Data set [1] concerns SW480 human colon adenocarcinoma cells. The data set is described as follows: Cell viability, sulforhodamine B (SRB) assay, SW480 cells. It is filed as cell-based. The settings on record: for IC50: Homo sapiens, SW480 cells, SRB. Here is the method: (§1) Biological assays were performed using an adenocarcinoma colon cancer cell line (SW480) and non-malignant cells (CHO-K1). These were obtained from the European Collection of Authenticated Cell Cultures (ECACC, England) and maintained in Dulbecco’s Modified Eagle Medium, supplemented with 10% heat-inactivated (56 °C) horse serum, 1% penicillin/streptomycin and 1% non-essential amino acids (Gibco Invitrogen, Carlsbad, USA). For all experiments, horse serum was reduced to 3%, and the medium was supplemented with […] transferrin, 5 ng/mL selenium and […] insulin (ITS-defined medium; Gibco, Invitrogen, Carlsbad, USA) ([32]).
(§2) The cell viability of the synthesized hybrids, lead, and reference compounds was evaluated through Sulforhodamine B (SRB) assay, a colorimetric test that is based on staining of total cellular protein of adherent cells. The cells were seeded to a ﬁnal density of 20.000 cells/well in 96-well tissue culture plates and incubated at 37 °C in a humidified atmosphere at 5% CO2. […] After treatment, the cells were fixed with trichloroacetic acid (50% v/v) (MERCK) for a period of one h at 4 °C. The cell proteins were determined by staining with 0.4% (w/v) SRB (Sigma-Aldrich, United States), then they were washed with 1% acetic acid for the removal of unbound SRB and left for air-drying. Protein bound SRB was solubilized in 10 mM Tris-base and the absorbance was measured at 492 nm in a microplate reader (Mindray MR-96A) ([33]). All of the experiments were performed at least in quintuplicate.

The test system of data set [2] is non-malignant CHO-K1 cell line. Nature of the data set: Cell viability, sulforhodamine B (SRB) assay, CHO-K1 cells. As to conditions: Cricetulus griseus. It is filed as cell-based. Here is the method: as §1, §2
(In general: Sulforhodamine B stains cellular protein and so reports cell mass.)

Data set [3] has as its system SW480 cells. Nature of the data set: Antiproliferative activity, SRB assay over 0-8 days. It is filed as cell-based, human. The settings on record: 0.1-0.55 mM, p ≤ 0.05 vs control. Here is the method:
Briefly, the cells were seeded to a ﬁnal density of 2500 cells/well in 96-well tissue culture plates and incubated in the same conditions described for viability. […] Culture media was replaced every 48 h. After each incubation time, the cells were fixed, stained, and read as previously described for this technique ([32]).

The test system of data set [4] is SW480 cells. The data set is described as follows: Mitochondrial membrane potential (ΔΨm), DiOC6/PI flow cytometry. It is filed as cell-based, human. As to conditions: SW480, treated at IC50, 48 h. Here is the method:
Mitochondrial membrane permeability changes were assessed through the fluorescent dye DiOC6 (3,3’-dihexyloxacarbocyanine iodide, Thermo Fisher Scientiﬁc, Waltham, MA, USA), and propidium iodide (PI). The cells were seeded to a ﬁnal density of 2.5 x 10^5 cells/well in 6-well tissue culture plates and were allowed to grow for 24 h. […] The cells were collected to analyze 10,000 events by ﬂow cytometry with excitation at 488 nm and detection of the emission with the green (530/15 nm) and the red (610/20 nm) ﬁlters. This method allowed us quantifying cells with depolarized mitochondrial membrane ([34]).

In data set [5] the test system is SW480 cells. The data set is described as follows: Cell cycle analysis, propidium iodide flow cytometry. It is filed as cell-based, human. As to conditions: SW480, treated at IC50, 48 h. Here is the method: Cell cycle distribution was analyzed by labelling cells with propidium iodide (PI). Assays were carried out as described by Nicoletti et al. (1991). In brief, cells were seeded in 6-well tissue culture plates at a density of 2.5 x 10^5 cells/well, incubated at 37 °C in a 5% CO2 atmosphere. […] After the treatment, the cells were collected by scraping and the centrifuged cell pellet was resuspended with phosphate buffered saline (PBS). The cell suspension was fixed in 1.8 mL 70% ethanol at 4°C overnight, afterward, these were centrifuged, washed twice in PBS and resuspended in 300 µL of PBS containing 0.25 mg/mL RNAse (Type I-A, Sigma-Aldrich, Germany) and 0.1 mg/mL PI. Following the incubation in the dark at room temperature for 30 min, the PI ﬂuorescence of 10,000 cells was analyzed using a FACS Canto II ﬂow cytometer and the software BD FACS Diva 6.1.3. (BD Biosciences, San Jose). PI signal was analyzed with excitation at 488 nm, using a Sapphire laser, and fluorescence was detected at 610nm. The cell clumps were excluded with the PI-Area vs PI-Width signals. The cell cycle model was ﬁxed using the software FlowJo 7.6.2 (Ashland, OR, USA), applying the Dean-Jett-Fox model ([34], [35]).

In data set [6] the test system is human gastric carcinoma cell line BGC-823. Details: method as in PMID 19272773. The settings on record: cited from earlier work.
For data set [7], the system named is human nasopharyngeal carcinoma cell line KB. Details: method as in PMID 19272773. As to conditions: cited from earlier work.
For data set [8], the system named is human hepatoma cell line BEL-7402. Details: method as in PMID 19272773. As to conditions: cited from earlier work.

Each structure is given as a SMILES string. ≈ marks a conversion by molar mass, not a printed value. Like-named read-outs stand apart in the source and are kept apart here.

The IC50 is the concentration that gives 50% inhibition. The melting point is the temperature, or range, at which the solid turns liquid. The compound `C=CCSC[C@H](NC(=O)/C=C/c1ccc(OC(C)=O)c(OC(C)=O)c1)C(=O)OCCCCC` [6e, Pentyl N-{(2E)-3-[3,4-bis(acetyloxy)phenyl]prop-2-enoyl}-S-prop-2-en-1-ylcysteinate] displayed a melting point of 101 to 103 °C. In data set [1] (24 h treatment, read-out: IC50 (mM) SW480 cells, 24 h), the IC50 came to 0.68 mM. Besides, the IC50 in [1] (48 h treatment, read-out: IC50 (mM) SW480 cells, 48 h) came out at 0.18 mM. Moreover, the “SI (selectivity index), 24 h” value in data set [1] (ratio of IC50 against CHO-K1 to IC50 against SW480, 24 h) is on record as 0.40. Also, the “SI (selectivity index), 48 h” value in data set [1] (ratio of IC50 against CHO-K1 to IC50 against SW480, 48 h) amounted to 10.3. Besides, the 50% inhibitory concentration (IC50) in data set [2] (24 h treatment, read-out: IC50 (mM) CHO-K1 cells, 24 h) amounted to 0.26 mM. Also, in data set [2] (48 h treatment, read-out: IC50 (mM) CHO-K1 cells, 48 h), the IC50 turned out to be 1.84 mM. In addition, the “Day from which significant antiproliferative activity was displayed” value in the data set on SW480 cells [3] stood at 2 days. Besides, in the data set with SW480 cells [4] (cells in process of death), the “PI+ cells” value is on record as 9,38%. The DiOC6 low cells with SW480 cells [4] (cells that lose membrane polarization) is 39,9%. For the same compound, the DiOC6 high cells in the data set with SW480 cells [4] (live cells with high membrane polarization) is 51,0%. Also, in the data set with SW480 cells [5], the “Cells in G2/M phase” value is on record as 22.7% and the “Effect on cell cycle in words” value is given as “cell cycle arrest in G2/M phase”.
For the compound `Cc1cccc(NC(=O)/C(C#N)=C/c2cc(O)c(O)c([N+](=O)[O-])c2)c1` [cyanoamide derivative 5], the “IC50 against BGC-823” value in [6] was 5.6 µg/mL (≈ 16.5 µM). Moreover, the “IC50 against KB” value in data set [7] is reported as 13.1 µg/mL (≈ 38.6 µM). Further, the “IC50 against BEL-7402” value in [8] is 12.5 µg/mL (≈ 36.8 µM).
